Reference: ChEMBL document CHEMBL1201862, “PubChem BioAssay data set” (2004)
Calls of active or inactive are those of the source.

How the values were obtained:
[1] = molecular target: NAD-dependent protein deacylase sirtuin-5, mitochondrial (Homo sapiens, UniProt Q9NXA8); assay: sirtuin-5 deacylation blockers, concentration series – biochemical, fluorescence imaging, cherry-pick, set 5, dose response (AID 720591);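 further: desuccinylation of succinyl peptide AMC substrate read as fluorescence after trypsin release; potency of inhibitors that lower fluorescence and may act on trypsin instead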
[2] = molecular target: Ubiquitin carboxyl-terminal hydrolase BAP1 (Homo sapiens, UniProt Q92560); assay: inhibition of BAP1 ubiquitin hydrolase activity – biochemical, dose response (AID 714); type: functional
Streptococcus = assay: GAS UMAA2166 growth inhibition – luminescence, BacTiterGlo, counter-screen for streptokinase expression inhibitor project, dose response (AID 1915); type: functional, organism-based;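 further: potency for reduction of bacterial viability or growth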
[3] = Trypanosoma cruzi growth suppression in host cells – NIH3T3 host cells, beta-gal luminescence, confirmation (AID 2044); type: functional, cell-based;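 further: intracellular parasites grown in NIH/3T3 mouse fibroblasts as host cells; luminescent beta-galactosidase reporter signal from transgenic T. cruzi replicating inside host cells; inhibitors lower the luminescence signal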
[4] = NIH3T3 cell viability loss – ATP luminescence, mouse fibroblasts, counter-screen, dose response (AID 2010); type: functional, cell-based;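 further: cells exposed to compound for about 90 hours before reading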
[5] = viability loss in Vero cells – cytotoxicity control for Vif-APOBEC3G degradation inhibitor project, dose response (AID 1117358); type: functional; conditions: Vero
[6] = test system: Streptococcus sp. 'group A'; assay: Streptococcus pyogenes SK(-)GAS viability under kanamycin – luminescence, BacTiterGlo, confirmation, counter-screen for streptokinase expression inhibitor project, dose response (AID 1900); type: functional, organism-based
[7] = molecular target: T1, Polyadenylate-binding protein 1 (Homo sapiens, UniProt P11940); assay: MLLE binding blockers, Cy5 peptide tracer – biochemical, fluorescence polarization, Cy5-PAM2 peptide, secondary, miRNA deadenylation inhibitor project, dose response (AID 602260); type: functional; conditions: read-out: IC50_Mean
Estrogen receptor beta [8] = molecular target: T2, Estrogen receptor beta (Homo sapiens, UniProt Q92731); assay: blockers of SRC-3 recruitment to ERβ – biochemical, ELISA, streptavidin-HRP readout, orthogonal assay, confirmation (AID 1060)
[9] = molecular target: Glutathione-S-transferase (Schistosoma japonicum, UniProt Q26513); assay: GST-antibody interaction or FRET quenching – biochemical, TR-FRET, artefact control for Vif-APOBEC3G degradation inhibitor project, dose response (AID 1117362); type: functional
Genome polyprotein = Genome polyprotein (dengue virus type 2, UniProt P29990); assay: flavivirus cap methylation enzyme inhibition – biochemical, confirmation dose response, primary screen (AID 588689); type: functional
[10] = molecular target: T1, Polyadenylate-binding protein 1; assay: MLLE domain peptide-binding blockers, IC50 – biochemical, fluorescence polarization, FITC-PAM2 peptide, dose response (AID 602259); type: functional; conditions: read-out: IC50_Mean
Bcl-2-like protein 10 = molecular target: T3, Bcl-2-like protein 10 (Homo sapiens, UniProt Q9HD36); assay: Bcl-B/TR3 peptide binding disruption – biochemical, fluorescence polarization, FITC-TR3 peptide, selectivity assay for Bfl-1 inhibitor project, primary screen (AID 748);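 further: fluorescence polarization from a fluorescein-labelled TR3 peptide binding purified Bcl-B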
T3 sequence (Q9HD36 whole entry): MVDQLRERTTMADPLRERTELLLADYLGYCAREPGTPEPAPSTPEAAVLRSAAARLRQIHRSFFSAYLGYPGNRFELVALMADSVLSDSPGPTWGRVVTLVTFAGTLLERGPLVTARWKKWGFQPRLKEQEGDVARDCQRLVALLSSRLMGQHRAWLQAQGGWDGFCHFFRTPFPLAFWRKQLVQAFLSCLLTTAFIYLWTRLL

[11] = molecular target: T4, RNA-binding protein pos-1 (Caenorhabditis elegans, UniProt G5EF15); assay: disruptors of C. elegans POS-1 RNA interaction – biochemical, fluorescence polarization, dose response (AID 1964);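 further: purified POS-1 fused to maltose binding protein made in E. coli; potency of compounds blocking POS-1 binding to fluorescent RNA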
T4 sequence (G5EF15 whole entry): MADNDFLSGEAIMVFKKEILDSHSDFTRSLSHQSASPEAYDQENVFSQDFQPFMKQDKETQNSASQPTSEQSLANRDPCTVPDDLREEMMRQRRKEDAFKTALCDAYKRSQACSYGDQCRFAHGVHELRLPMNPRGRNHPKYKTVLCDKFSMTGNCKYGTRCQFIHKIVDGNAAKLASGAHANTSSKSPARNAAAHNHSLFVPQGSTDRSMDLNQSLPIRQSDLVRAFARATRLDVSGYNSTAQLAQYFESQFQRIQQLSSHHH

Large T antigen = Large T antigen (Simian virus 40, UniProt P03070); type: functional, Betapolyomavirus macacae;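 further: Confirmatory-stage PubChem screen for compounds that inhibit SV40 T antigen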
[12] = molecular target: T5, Zinc finger protein mex-5 (Caenorhabditis elegans, UniProt Q9XUB2); assay: potency of MEX-5 RNA-binding blockers – biochemical, C. elegans, fluorescence polarization, dose response (AID 1960)
T5 sequence (Q9XUB2 whole entry): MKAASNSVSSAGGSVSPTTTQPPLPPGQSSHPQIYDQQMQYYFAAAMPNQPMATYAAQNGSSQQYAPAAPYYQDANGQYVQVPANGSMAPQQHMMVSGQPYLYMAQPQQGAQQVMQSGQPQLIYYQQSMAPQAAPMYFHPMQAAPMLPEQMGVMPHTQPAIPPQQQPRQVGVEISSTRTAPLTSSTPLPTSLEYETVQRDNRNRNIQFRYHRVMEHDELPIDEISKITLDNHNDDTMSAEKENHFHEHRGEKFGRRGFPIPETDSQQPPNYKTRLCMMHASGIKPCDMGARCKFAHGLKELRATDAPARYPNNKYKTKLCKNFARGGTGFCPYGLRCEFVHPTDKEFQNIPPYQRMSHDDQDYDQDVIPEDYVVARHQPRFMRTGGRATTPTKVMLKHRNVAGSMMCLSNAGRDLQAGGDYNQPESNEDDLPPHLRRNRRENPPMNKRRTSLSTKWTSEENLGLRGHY

[13] = SNU-C1 cell viability reduction, dose response, CellTiter-Glo luminescence (AID 1117323); type: functional, cell-based
[14] = cytotoxicity toward HT-29 cells – cell-based, CellTiter-Glo luminescence, IC50, dose response (AID 1117330); type: functional
[15] = cytotoxicity toward HCT116 cells – cell-based, CellTiter-Glo luminescence, IC50, dose response (AID 1117332); type: functional; conditions: HCT-116
[16] = cytotoxicity toward Colo320 cells – cell-based, CellTiter-Glo luminescence, IC50, dose response (AID 1117334); type: functional; conditions: COLO 320
[17] = rise of 4N DNA cells, HeLa – IC50, dose response (AID 1117351); type: functional, cell-based
[18] = HCT116 cell viability decrease, GSK3B pretreatment – CellTiter-Glo, IC50, dose response (AID 1117339); type: functional; conditions: HCT-116
[19] = CellTiter-Glo luminescence survival assay, SW480 colon tumor line, concentration-response curve, half-maximal inhibitory concentration (AID 1117338); type: functional
[20] = rise of 2N DNA cells, HeLa – IC50, dose response (AID 1117349); type: functional, cell-based
[21] = Reduced DLD-1 viability, concentration-response, CellTiter-Glo luminescence (AID 1117352); type: functional
[22] = RKO cell viability reduction, dose response, CellTiter-Glo luminescence (AID 1117322); type: functional
[23] = IC50 of Artemis nuclease activity blockers – biochemical, fluorescence intensity, dose response (AID 720701); type: functional;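 further: Artemis endonuclease enzyme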
[24] = molecular target: T6, Low molecular weight phosphotyrosine protein phosphatase (Homo sapiens, UniProt P24666); type: functional; conditions: read-out: IC50_Mean;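 further: Dose-response confirmation assay measuring inhibition of LMPTP enzyme activity by fluorescence intensity read-out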
T6 sequence (P24666 whole entry): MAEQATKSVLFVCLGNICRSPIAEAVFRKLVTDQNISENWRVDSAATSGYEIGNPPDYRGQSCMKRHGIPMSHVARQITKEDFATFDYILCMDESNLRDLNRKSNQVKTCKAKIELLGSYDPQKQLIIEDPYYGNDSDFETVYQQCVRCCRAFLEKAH

Estrogen receptor beta [25] = molecular target: T2, Estrogen receptor beta
[26] = PAX5 cellular inhibition readout – cell-based, plate reader, dry powder samples, selectivity assay for PAX8 inhibitor project, dose response (AID 743047); type: functional;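 further: HEK293 cells carrying a Pax5 driven CD19 promoter luciferase reporter; potency of inhibitors that lower reporter luminescence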
[27] = general cell-killing toxicity readout – plate reader, dry powder samples, cytotoxicity control for PAX8 inhibitor project, dose response (AID 743021); type: functional, cell-based
[28] = OV-90 cell viability loss – plate reader, dry powder, SA8, PAX8 inhibitor project, dose response (AID 743149); type: functional, cell-based
[29] = IGROV1 cell killing – plate reader, dry powder samples, PAX8 inhibitor project, dose response (AID 743043); type: functional, cell-based; conditions: IGROV-1
[30] = OVCAR4 cell viability loss – plate reader, dry powder, SA11, cytotoxicity control for PAX8 inhibitor project, dose response (AID 743150); type: functional, cell-based; conditions: OVCAR-4
[31] = COV362 cell viability loss – plate reader, dry powder, SA12, cytotoxicity control for PAX8 inhibitor project, dose response (AID 743144); type: functional, cell-based
[32] = inhibitors acting on PAX2 in cells – cell-based, plate reader, dry powder samples, selectivity assay for PAX8 inhibitor project, dose response (AID 743048); type: functional;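 further: HEK293 cells carrying a WT1 promoter luciferase reporter driven by expressed Pax2; potency is for inhibition of Pax2 driven reporter signal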
[33] = OVCAR-3 cell viability loss – plate reader, dry powder samples, PAX8 inhibitor project, dose response (AID 743044); type: functional, cell-based
[34] = COV434 cell viability loss – plate reader, dry powder, SA7, cytotoxicity control for PAX8 inhibitor project, dose response (AID 743145); type: functional, cell-based
[35] = PAX8-dependent cell viability loss – plate reader, dry powder, dose response (AID 743049); type: functional, cell-based

T2 sequence (Q92731 whole entry): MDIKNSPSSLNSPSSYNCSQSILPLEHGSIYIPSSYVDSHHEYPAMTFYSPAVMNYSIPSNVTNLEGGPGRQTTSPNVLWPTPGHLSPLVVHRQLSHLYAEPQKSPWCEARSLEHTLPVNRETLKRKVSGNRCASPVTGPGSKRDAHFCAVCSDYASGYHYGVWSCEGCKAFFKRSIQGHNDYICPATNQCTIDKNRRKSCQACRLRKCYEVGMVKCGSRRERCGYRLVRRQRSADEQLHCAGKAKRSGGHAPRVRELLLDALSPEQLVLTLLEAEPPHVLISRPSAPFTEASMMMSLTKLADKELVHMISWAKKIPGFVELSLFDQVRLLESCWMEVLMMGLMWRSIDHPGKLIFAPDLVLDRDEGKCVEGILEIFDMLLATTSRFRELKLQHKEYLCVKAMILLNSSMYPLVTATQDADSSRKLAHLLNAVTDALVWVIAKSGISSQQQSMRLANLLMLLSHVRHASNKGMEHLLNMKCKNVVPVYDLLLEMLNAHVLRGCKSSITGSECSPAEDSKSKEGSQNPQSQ
T1 sequence (P11940 whole entry): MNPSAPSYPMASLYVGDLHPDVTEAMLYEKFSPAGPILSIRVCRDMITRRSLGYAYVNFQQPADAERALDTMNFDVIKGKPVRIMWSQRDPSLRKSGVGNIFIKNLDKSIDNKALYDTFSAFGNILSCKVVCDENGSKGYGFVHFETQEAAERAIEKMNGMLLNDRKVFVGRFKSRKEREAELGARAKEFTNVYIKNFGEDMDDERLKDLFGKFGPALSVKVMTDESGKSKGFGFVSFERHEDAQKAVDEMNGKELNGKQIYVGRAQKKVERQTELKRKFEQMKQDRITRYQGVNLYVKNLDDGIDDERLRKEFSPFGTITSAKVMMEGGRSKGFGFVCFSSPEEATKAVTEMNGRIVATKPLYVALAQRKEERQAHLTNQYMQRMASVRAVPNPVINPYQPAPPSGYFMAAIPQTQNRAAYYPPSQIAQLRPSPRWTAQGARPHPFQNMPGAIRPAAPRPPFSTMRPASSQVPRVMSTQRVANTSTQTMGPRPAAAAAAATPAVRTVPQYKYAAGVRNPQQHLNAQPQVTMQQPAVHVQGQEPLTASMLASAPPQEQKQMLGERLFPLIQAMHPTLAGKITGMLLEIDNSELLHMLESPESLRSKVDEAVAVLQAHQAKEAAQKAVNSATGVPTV
Chain of Genome polyprotein (P29990 2492-3391 limits assumed): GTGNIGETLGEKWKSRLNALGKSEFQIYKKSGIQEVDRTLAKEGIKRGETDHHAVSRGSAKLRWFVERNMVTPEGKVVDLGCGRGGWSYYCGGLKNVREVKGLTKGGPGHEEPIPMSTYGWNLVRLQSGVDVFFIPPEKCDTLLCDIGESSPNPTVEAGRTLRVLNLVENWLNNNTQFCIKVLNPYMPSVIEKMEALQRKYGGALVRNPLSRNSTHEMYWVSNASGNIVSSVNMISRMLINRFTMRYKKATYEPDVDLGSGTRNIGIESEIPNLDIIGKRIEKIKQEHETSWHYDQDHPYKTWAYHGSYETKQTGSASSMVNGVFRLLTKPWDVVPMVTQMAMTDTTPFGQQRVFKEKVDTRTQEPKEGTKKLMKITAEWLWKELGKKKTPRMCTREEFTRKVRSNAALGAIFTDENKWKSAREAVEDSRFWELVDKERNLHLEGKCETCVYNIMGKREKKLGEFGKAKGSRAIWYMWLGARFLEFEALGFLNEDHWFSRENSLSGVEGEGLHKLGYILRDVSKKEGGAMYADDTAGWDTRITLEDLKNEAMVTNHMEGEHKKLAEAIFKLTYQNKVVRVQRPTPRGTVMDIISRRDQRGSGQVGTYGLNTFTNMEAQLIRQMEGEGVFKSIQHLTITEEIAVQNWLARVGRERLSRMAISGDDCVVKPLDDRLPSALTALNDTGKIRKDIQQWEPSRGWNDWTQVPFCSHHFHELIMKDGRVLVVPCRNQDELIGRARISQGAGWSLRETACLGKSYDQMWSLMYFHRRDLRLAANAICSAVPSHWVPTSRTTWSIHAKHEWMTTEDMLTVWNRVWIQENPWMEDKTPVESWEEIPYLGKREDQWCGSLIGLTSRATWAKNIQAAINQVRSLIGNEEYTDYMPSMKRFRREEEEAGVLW
Chain of Ubiquitin carboxyl-terminal hydrolase BAP1 (Q92560 whole entry): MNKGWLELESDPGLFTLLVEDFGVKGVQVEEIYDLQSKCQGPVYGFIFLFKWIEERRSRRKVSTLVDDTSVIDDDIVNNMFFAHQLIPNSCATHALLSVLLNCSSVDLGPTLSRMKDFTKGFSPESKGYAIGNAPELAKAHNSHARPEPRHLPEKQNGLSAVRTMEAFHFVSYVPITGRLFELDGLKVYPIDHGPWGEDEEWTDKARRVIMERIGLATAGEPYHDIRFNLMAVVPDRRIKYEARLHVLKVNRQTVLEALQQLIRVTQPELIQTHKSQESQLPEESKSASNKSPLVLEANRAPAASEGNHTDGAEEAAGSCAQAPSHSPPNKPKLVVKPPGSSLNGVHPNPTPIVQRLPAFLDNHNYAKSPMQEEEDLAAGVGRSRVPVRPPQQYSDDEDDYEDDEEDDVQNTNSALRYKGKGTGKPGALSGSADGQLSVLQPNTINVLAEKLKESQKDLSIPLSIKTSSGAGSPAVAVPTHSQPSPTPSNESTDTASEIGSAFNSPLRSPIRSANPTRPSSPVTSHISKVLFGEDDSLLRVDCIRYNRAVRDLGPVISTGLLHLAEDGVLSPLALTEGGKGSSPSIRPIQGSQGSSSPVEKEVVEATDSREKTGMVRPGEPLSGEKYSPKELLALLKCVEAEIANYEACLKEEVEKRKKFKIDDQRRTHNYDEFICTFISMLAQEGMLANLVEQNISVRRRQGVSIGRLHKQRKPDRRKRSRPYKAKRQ
Chain of NAD-dependent protein deacylase sirtuin-5, mitochondrial (Q9NXA8 whole entry): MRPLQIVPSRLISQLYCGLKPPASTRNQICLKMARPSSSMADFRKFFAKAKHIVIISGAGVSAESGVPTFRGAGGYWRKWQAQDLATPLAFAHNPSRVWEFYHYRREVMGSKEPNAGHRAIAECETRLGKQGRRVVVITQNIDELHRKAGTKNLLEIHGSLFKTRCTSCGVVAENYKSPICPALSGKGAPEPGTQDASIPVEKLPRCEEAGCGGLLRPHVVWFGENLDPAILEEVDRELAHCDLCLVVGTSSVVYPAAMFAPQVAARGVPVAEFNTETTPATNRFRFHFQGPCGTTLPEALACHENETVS
Chain of Glutathione-S-transferase (Q26513 whole entry): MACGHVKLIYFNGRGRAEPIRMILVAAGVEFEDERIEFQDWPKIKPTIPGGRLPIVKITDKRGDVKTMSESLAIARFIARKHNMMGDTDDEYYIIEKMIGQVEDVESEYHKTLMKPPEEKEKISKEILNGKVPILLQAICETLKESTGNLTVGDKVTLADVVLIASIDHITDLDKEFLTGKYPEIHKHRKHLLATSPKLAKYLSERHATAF
Chain of Large T antigen (P03070 whole entry): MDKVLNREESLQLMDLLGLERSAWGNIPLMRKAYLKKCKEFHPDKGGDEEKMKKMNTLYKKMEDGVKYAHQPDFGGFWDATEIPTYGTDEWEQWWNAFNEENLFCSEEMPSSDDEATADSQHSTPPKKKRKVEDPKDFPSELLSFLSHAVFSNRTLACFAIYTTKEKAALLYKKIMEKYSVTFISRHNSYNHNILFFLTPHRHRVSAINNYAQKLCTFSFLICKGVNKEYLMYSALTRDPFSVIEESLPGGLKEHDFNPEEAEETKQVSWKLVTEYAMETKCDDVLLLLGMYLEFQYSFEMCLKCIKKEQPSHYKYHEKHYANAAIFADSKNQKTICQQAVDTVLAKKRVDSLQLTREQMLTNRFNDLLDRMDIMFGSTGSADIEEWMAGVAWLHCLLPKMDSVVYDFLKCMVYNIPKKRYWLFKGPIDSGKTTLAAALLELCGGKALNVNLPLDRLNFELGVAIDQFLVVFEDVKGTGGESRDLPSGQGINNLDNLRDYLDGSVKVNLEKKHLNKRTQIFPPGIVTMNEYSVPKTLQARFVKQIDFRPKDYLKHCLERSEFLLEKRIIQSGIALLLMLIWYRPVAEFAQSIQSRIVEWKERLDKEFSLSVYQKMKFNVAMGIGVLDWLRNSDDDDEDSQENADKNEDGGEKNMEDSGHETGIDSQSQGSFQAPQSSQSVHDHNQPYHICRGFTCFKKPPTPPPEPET

O=C(Cc1nnc(NC(=O)Nc2ccc(Cl)cc2)s1)NCc1ccccc1
AC50 [1]: > 30 µM (inactive)

Nc1nn(S(=O)(=O)c2cccc3nsnc23)cc1-c1ccc(Br)cc1
IC50 [2]: > 50 µM (not active)

O=C(Nc1nnc(C2CC2)o1)c1ccc(S(=O)(=O)N2CCCc3ccccc32)cc1
EC50 (Streptococcus): 4 µM (active) | EC50 [3]: 1.4 µM (active) | EC50 [4]: 5.11 µM (active) | CC50 [5]: 15.1 µM (active) | EC50 [6]: 2.46 µM (active)

O=c1oc2c3c4c(cc2s1)CCCN4CCC3
IC50 [7]: > 66 µM (inactive) | IC50 (Estrogen receptor beta [8]): > 50 µM (not active) | IC50 [9]: 66.2 µM (active) | IC50 (Genome polyprotein): 86.7 µM (active) | IC50 [10]: 48 µM (inactive) | IC50 (Bcl-2-like protein 10): 10.4 µM (active) | EC50 [11]: 28.1 µM (active) | IC50 (Large T antigen): 17.9 µM (active) | EC50 [12]: 24.1 µM (inconclusive)

CCC(=O)c1ccc(O)cc1 [PAROXYPROPIONE]
IC50 [13]: > 20 µM (inactive) | IC50 [14]: > 20 µM (inactive) | IC50 [15]: > 20 µM (inactive) | IC50 [16]: > 20 µM (inactive) | IC50 [17]: > 10 µM (inactive) | IC50 [18]: 6.25 µM (inactive) | IC50 [19]: 4.1 µM (active) | IC50 [20]: > 10 µM (inactive) | IC50 [21]: 6.67 µM (inactive) | IC50 [22]: 7.8 µM (inactive)

O=C1CC(c2ccco2)Cc2nc(Nc3nc(-c4ccccc4)c4ccccc4n3)ncc21 (centres undefined)
IC50 [23]: > 20 µM (inactive) | IC50 [24]: 10.9 µM (active)

CC(C)COC(=O)c1nnsc1NC(=O)Nc1ccccc1
IC50 (Estrogen receptor beta [25]): > 50 µM (not active)

CN(C)CCN(C(=O)/C=C/c1cccs1)c1nc2c(F)cc(F)cc2s1
AC50 [26]: > 100 µM (inactive) | AC50 [27]: 11.6 µM (active) | AC50 [28]: 32.8 µM (active) | AC50 [29]: 34.3 µM (active) | AC50 [30]: 31.2 µM (active) | AC50 [31]: 21.2 µM (active) | AC50 [32]: > 100 µM (inactive) | AC50 [33]: 29.1 µM (active) | AC50 [34]: 44.9 µM (active) | AC50 [35]: 19.4 µM (active)
